Data published in patent US12152038B2, “Vasopressin receptor antagonists and products and methods related thereto” (Neumora Therapeutics, Inc., priority 2017, dated 2024).

Assays:
[1] = Wild-type MDCK permeability and efflux assay (Papp, efflux ratio); assay type: in vitro ADME; conditions: dog, pH 7.4, wild-type MDCK cells; for efflux ratio at 1 h, 10 μM: Papp B>A/Papp A>B, read-out: ER WT (Efflux Ratio)
Method: The MDR1-MDCK effective efflux assay was performed as described in the BioFocus Standard Operating Procedure, ADME-SOP-56. Both wild-type (WT) and MDR1-MDCK cells (Solvo Biotechnology) were seeded onto 24-well Transwell plates at 2.35×10^5 cells per well and used in confluent monolayers after a 3 day culture at 37° C. under 5% CO2. For both cell types, test and control compounds (propranolol, vinblastine) were added (10 μM, 0.1% DMSO final, n=2) to donor compartments of the Transwell plate assembly in assay buffer (Hanks balanced salt solution supplemented with 25 mM HEPES, adjusted to pH 7.4) for both apical to basolateral (A>B) and basolateral to apical (B>A) measurements. Incubations were performed at 37° C., with samples removed from both donor and acceptor chambers at T=0 and 1 hour and compound analysed by mass spectrometry (LC-MS/MS) including an analytical internal standard.
Apparent permeability (Papp) values were determined from the relationship: Papp=[CompoundAcceptor T=end]×V Acceptor/([Compound Donor T=0]×V Donor)/incubation time×V Donor/Area×60×10^−6 cm/s
In this equation, V is the volume of each Transwell compartment (apical 125 μL, basolateral 600 μL), and concentrations are the relative MS responses for compound (normalized to internal standard) in the donor chamber before incubation and acceptor chamber at the end of the incubation, and Area is the area of cells exposed for drug transfer (0.33 cm^2).
Efflux ratios (Papp B>A/Papp A>B) were calculated for each compound from the mean Papp values in each direction for both wild-type and MDR1-MDCK cells.
In order to confirm the involvement of MDR1 in any efflux seen, an “effective efflux ratio” (EER) was calculated by comparing compound efflux ratios (ER) in the two cell types by the following equation: EER=ER(MDR1-MDCK)/ER(wild-type MDCK)
This ratio illustrates the effect of the over-expressed MDR1 normalised for the background movement of compound through the wild-type cells.
Lucifer Yellow (LY) was added to the apical buffer in all wells to assess viability of the cell layer. […] Recoveries<50% indicates compound solubility, stability or binding issues, thereby reducing the reliability of a result.
The inherent ability of a potential drug molecule to penetrate the blood brain barrier and avoid efflux by transporters expressed in the brain, can be roughly correlated with the Papp(A-B) and the efflux ratio (as defined above), respectively. A potential drug molecule with an apparent permeability<7 (10^−6 cm/sec) has low permeability (+), >7 (10^−6 cm/sec) but <10 (10^−6 cm/sec) has moderate permeability (++), >10 (10^−6 cm/sec) but <20 (10^−6 cm/sec) has good permeability (+++), and >20 (10^−6 cm/sec) is highly permeable (++++). High permeability in the WT and MDCK II cell permeability assay increases the probability of blood brain barrier penetration and access to the CNS. A potential drug molecule in the above assay system with an efflux ratio or effective efflux ratio of <1 has low probability of being an efflux substrate (++++), >1 but <2 has moderate probability of being an efflux substrate (+++), >2 but <3 has has an increased probability of being an efflux substrate (++), and >3 has a high probability of being an efflux substrate (+). If a potential drug molecule is an efflux substrate, the molecule will have a low probability of reaching exposures in the brain (site of action) that will result in efficacious levels of receptor occupancy.

[2] = target: T1, human Arginine Vasopressin Receptor 1a (AVPR1a) (Homo sapiens, UniProt P37288); test: Vasopressin V1a receptor antagonist assay (FLIPR calcium, CHO-AVPR1a cells); assay type: cell-based
T1 construct: expressed in transfected cells; host or cells: CHO (CHO-AVPR1a, kept under G418 selection)
Method in brief: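 CHO cells expressing human AVPR1a were loaded with Calcium-6 dye and preincubated with compound for 15 min at 37° C. Cells were then challenged with AVP at its daily-determined EC80, and FLIPR fluorescence was read. Compounds were tested in duplicate as 10-point 1:3 dilutions from a top final concentration of 3 μM.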

T1 sequence (P37288 whole entry): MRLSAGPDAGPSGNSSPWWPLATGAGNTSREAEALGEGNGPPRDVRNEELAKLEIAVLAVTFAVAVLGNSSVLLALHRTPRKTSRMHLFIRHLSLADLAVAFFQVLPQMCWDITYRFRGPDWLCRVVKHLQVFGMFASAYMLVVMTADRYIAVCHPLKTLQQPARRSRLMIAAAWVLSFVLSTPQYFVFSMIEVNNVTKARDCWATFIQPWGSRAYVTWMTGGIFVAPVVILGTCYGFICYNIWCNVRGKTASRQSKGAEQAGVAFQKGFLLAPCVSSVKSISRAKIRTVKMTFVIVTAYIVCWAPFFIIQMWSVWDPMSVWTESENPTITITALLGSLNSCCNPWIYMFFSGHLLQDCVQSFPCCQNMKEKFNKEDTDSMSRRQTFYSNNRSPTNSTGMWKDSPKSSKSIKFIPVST

| SMILES | Papp A→B at 1 h, 10 μM [1] | efflux ratio at 1 h, 10 μM [1] | IC50 [2] |
| --- | --- | --- | --- |
| CC1COc2cc(Cl)ccc2N1C(=O)N1CC2(C1)CN(c1ncccn1)C2 (single isomer, unassigned) [1-83-B, (7-chloro-3-methyl-2,3-dihydro-4H-benzo[b][1,4]oxazin-4-yl)(6-(pyrimidin-2-yl)-2,6-diazaspiro[3.3]heptan-2-yl)methanone] | > 20 ×10⁻⁶ cm/s | < 1 | < 100 nM |
| CC1COc2cc(F)ccc2N1C(=O)N1CC2(C1)CN(c1noc3ccccc13)C2 (single isomer, unassigned) [4-3-B] | > 20 ×10⁻⁶ cm/s | < 1 | < 100 nM |
| CC1COc2cc(Cl)ccc2N1C(=O)N1CC2(C1)CN(c1cccnn1)C2 (single isomer, unassigned) [9-1-B] | > 20 ×10⁻⁶ cm/s | 1 to 2 | < 100 nM |
| O=C(N1CC2(C1)CN(c1ccc(F)cn1)C2)N1CCC(O)c2cc(Cl)ccc21 (single isomer, unassigned) [13-1-A] | > 20 ×10⁻⁶ cm/s | < 1 | < 100 nM |
| O=C(N1CC2(C1)CN(c1ccccn1)C2)N1CCC(O)c2cc(Cl)ccc21 (single isomer, unassigned) [13-2-B] | > 20 ×10⁻⁶ cm/s | 1 to 2 | < 100 nM |
| CC1COc2cc(Cl)ccc2N1C(=O)N1CC2(C1)CN(c1noc3cccnc13)C2 (single isomer, unassigned) [18-3-B] | > 20 ×10⁻⁶ cm/s | < 1 | < 100 nM |
| CC1COc2cc(F)c(F)cc2N1C(=O)N1CC2(C1)CN(c1ncccn1)C2 (single isomer, unassigned) [19-1-B] | > 20 ×10⁻⁶ cm/s | 1 to 2 | < 100 nM |
| CC1COc2cc(Cl)c(F)cc2N1C(=O)N1CC2(C1)CN(c1ncccn1)C2 (single isomer, unassigned) [19-2-B] | > 20 ×10⁻⁶ cm/s | 1 to 2 | < 100 nM |
| CC1COc2cc(Cl)c(F)cc2N1C(=O)N1CC2(C1)CN(c1cccnn1)C2 (single isomer, unassigned) [19-4-A] | > 20 ×10⁻⁶ cm/s | 1 to 2 | < 100 nM |
| Cc1cncc(N2CC3(CN(C(=O)N4c5ccc(F)cc5OCC4C)C3)C2)n1 (single isomer, unassigned) [20-2-A] | > 20 ×10⁻⁶ cm/s | < 1 | 500 to 1000 nM |
| CC1COc2cc(F)ccc2N1C(=O)N1CC2(C1)CN(c1cc(C#N)ccn1)C2 (single isomer, unassigned) [20-3-B] | > 20 ×10⁻⁶ cm/s | < 1 | < 100 nM |
| Cc1ccnc(N2CC3(CN(C(=O)N4c5ccc(F)cc5OCC4C)C3)C2)c1 (single isomer, unassigned) [20-4-B] | > 20 ×10⁻⁶ cm/s | < 1 | < 100 nM |
| COc1ccnc(N2CC3(CN(C(=O)N4c5ccc(Cl)cc5OCC4C)C3)C2)c1 (single isomer, unassigned) [20-8-B] | > 20 ×10⁻⁶ cm/s | < 1 | < 100 nM |
| COc1ccnc(N2CC3(CN(C(=O)N4c5ccc(Cl)cc5OCC4C)C3)C2)n1 (single isomer, unassigned) [20-9-B] | > 20 ×10⁻⁶ cm/s | < 1 | < 100 nM |
| Cc1nccnc1N1CC2(CN(C(=O)N3c4ccc(Cl)cc4OCC3C)C2)C1 (single isomer, unassigned) [20-10-A] | > 20 ×10⁻⁶ cm/s | < 1 | < 100 nM |
| Cc1ccnc(N2CC3(CN(C(=O)N4c5ccc(Cl)cc5OCC4C)C3)C2)n1 (single isomer, unassigned) [20-12-B] | > 20 ×10⁻⁶ cm/s | < 1 | < 100 nM |
| CC1COc2cc(F)ccc2N1C(=O)N1CC2(C1)CN(c1noc3ccccc13)C2 (stereo not drawn) [4-3] | > 20 ×10⁻⁶ cm/s | < 1 | < 100 nM |

| SMILES | Papp A→B at 1 h, 10 μM [1] | efflux ratio at 1 h, 10 μM [1] | IC50 [2] |
| --- | --- | --- | --- |
| O=C(N1CC2(C1)CN(c1ccccn1)C2)N1CCOc2cc(Cl)ccc21 [8-2] | > 20 ×10⁻⁶ cm/s | < 1 | < 100 nM |
| O=C(N1CC2(C1)CN(c1cnccn1)C2)N1CCOc2cc(Cl)ccc21 [8-3] | > 20 ×10⁻⁶ cm/s | < 1 | < 100 nM |
| O=C(N1CC2(C1)CN(c1ccc(F)cn1)C2)N1CCOCc2cc(Cl)ccc21 [8-4] | > 20 ×10⁻⁶ cm/s | 1 to 2 | < 100 nM |
| O=C(N1CC2(C1)CN(c1ccc(F)cn1)C2)N1CCc2cc(Cl)ccc21 [8-11] | > 20 ×10⁻⁶ cm/s | < 1 | < 100 nM |
| O=C(N1CC2(C1)CN(c1ccccn1)C2)N1CCOCc2cc(Cl)ccc21 [8-12] | > 20 ×10⁻⁶ cm/s | < 1 | < 100 nM |
| O=C(N1CC2(C1)CN(c1cnccn1)C2)N1CCc2cc(Cl)ccc21 [8-14] | > 20 ×10⁻⁶ cm/s | 1 to 2 | < 100 nM |
| O=C(N1CC2(C1)CN(c1ccc(F)cn1)C2)N1CCOc2cc(Cl)ccc21 [9-7] | > 20 ×10⁻⁶ cm/s | < 1 | < 100 nM |
| O=C(N1CC2(C1)CN(c1ccc(F)cn1)C2)N1CCC(O)c2cc(Cl)ccc21 (stereo not drawn) [13-1, (6-chloro-4-hydroxy-3,4-dihydroquinolin-1(2H)-yl)(6-(5-fluoropyridin-2-yl)-2,6-diazaspiro[3.3]heptan-2-yl)methanone] | > 20 ×10⁻⁶ cm/s | < 1 | < 100 nM |
| O=C(N1CC2(C1)CN(c1ccc(F)cn1)C2)N1CCC(F)(F)c2cc(Cl)ccc21 [17-1, (6-chloro-4,4-difluoro-3,4-dihydroquinolin-1(2H)-yl)(6-(5-fluoropyridin-2-yl)-2,6-diazaspiro[3.3]heptan-2-yl)methanone] | > 20 ×10⁻⁶ cm/s | < 1 | < 100 nM |
| CC1COc2cc(Cl)ccc2N1C(=O)N1CC2(C1)CN(c1noc3cccnc13)C2 (stereo not drawn) [18-3] | > 20 ×10⁻⁶ cm/s | < 1 | < 100 nM |
| CC1COc2cc(Cl)c(F)cc2N1C(=O)N1CC2(C1)CN(c1cccnn1)C2 (stereo not drawn) [19-4] | > 20 ×10⁻⁶ cm/s | < 1 | < 100 nM |
| CC1COc2cc(F)c(F)cc2N1C(=O)N1CC2(C1)CN(c1ccc(F)cn1)C2 (stereo not drawn) [19-5] | > 20 ×10⁻⁶ cm/s | < 1 | < 100 nM |
| Cc1cncc(N2CC3(CN(C(=O)N4c5ccc(F)cc5OCC4C)C3)C2)n1 (stereo not drawn) [20-2] | > 20 ×10⁻⁶ cm/s | 1 to 2 | < 100 nM |
| COc1ccnc(N2CC3(CN(C(=O)N4c5ccc(Cl)cc5OCC4C)C3)C2)c1 (stereo not drawn) [20-8] | > 20 ×10⁻⁶ cm/s | < 1 | < 100 nM |
| COc1ccnc(N2CC3(CN(C(=O)N4c5ccc(Cl)cc5OCC4C)C3)C2)n1 (stereo not drawn) [20-9] | > 20 ×10⁻⁶ cm/s | < 1 | < 100 nM |
| Cc1nccnc1N1CC2(CN(C(=O)N3c4ccc(Cl)cc4OCC3C)C2)C1 (stereo not drawn) [20-10] | > 20 ×10⁻⁶ cm/s | < 1 | < 100 nM |
| Cc1ccnc(N2CC3(CN(C(=O)N4c5ccc(Cl)cc5OCC4C)C3)C2)c1 (stereo not drawn) [20-11] | > 20 ×10⁻⁶ cm/s | < 1 | < 100 nM |
